According to ChEMBL document CHEMBL2094269, “WEHI/Eskitis Trypanosoma b. brucei screening data”:

Columns and labels:
[1] = DNDI: Cytotoxicity against human MRC-5 lung fibroblast cells.; details: IC50
[2] = tested on: Trypanosoma brucei brucei; assay: microbe, parasite or virus in culture; format: functional, organism-based, STIB 795
Description: DNDI: Inhibition of Human African Trypanosomiasis (HAT), STIB 795, in vitro

SMILES | IC50 [1] [µM] | IC50 ([2]; Trypanosoma brucei, STIB 795) [µM] | IC50 [2] [µM]
O=C(O)c1ccc(NNc2c3ccccc3nc3ccccc23)cc1 | > 41.7 | 1.02 | 
CC1(C)N=C(N)N=C(N)N1OCc1cccc(C2CCCCC2)c1 | > 41.7 | 4.68 | 
O=C(c1ccc(Cl)cc1)C(CN1CCOCC1)c1ccccc1 (configuration not stated) | > 20.8 | 3.11 | 4
Cc1cc(C)c(C(=O)CC(N2CCCCC2)C(F)(F)F)c(=O)[nH]1 (configuration not stated) | > 20.8 | 2.27 | 
CCOC(=O)C/C(C)=N/Nc1ccc(-n2nc(C)c(C)c2C)nn1 | > 10.4 | 2.16 | 
CC1(C)CC(=O)C(C2=C(Cl)C(=O)c3ccccc3C2=O)=C(O)C1 | > 41.7 | 0.642 | 0.59
CC(=O)CC1(O)C(=O)Nc2ccc(I)cc21 (configuration not stated) | > 41.7 | 3.13 | 
Cc1cc(Cl)cc(Cl)c1OCCCCCN1CCNCC1 | > 20.8 | 2.28 | 
Cn1c(Cc2ccccc2)nn(C2CC(=O)C3OCC2O3)c1=S (configuration not stated) | > 41.7 | 4.91 | 
CC1CC(C)(C)Nc2ccc(OCc3cccc4ccccc34)cc21 (configuration not stated) | > 20.8 | 0.832 | 
CCOc1cc2c(cc1OCC)C(c1ccc(Cl)cc1)NCC2 (configuration not stated) | > 20.8 | 5.64 | 
CC(C)/C(N)=N/OC(=O)c1ccc(I)cc1 | > 41.7 | 0.808 | 
O=C1NC(=S)NC(=O)C1=Cc1c2ccccc2cc2ccccc12 | > 41.7 | 5.29 | 
Cc1cccc(-n2nnn(C3CC(=O)C4OCC3O4)c2=S)c1C (configuration not stated) | > 41.7 | 5.25 | 
COc1ccc2c(C)cc(Sc3cccc4cccnc34)nc2c1 | > 41.7 | 5.58 | 
CC(C)(C)C1C/C(=C\c2cccnc2)C(=O)/C(=C/c2cccnc2)C1 (configuration not stated) | > 4.17 | 0.098 | 
O=C(CCN1CCCCC1)Nc1ccc(OC(F)(F)Cl)cc1 | > 41.7 | 4.27 | 3.9
N/C(=N\OC(=O)C12CC3CC(CC(C3)C1)C2)c1ccccc1Cl | > 41.7 | 0.372 | 
O=c1c(Oc2ccccc2Br)coc2cc(O)ccc12 | > 41.7 | 4.46 | 
CCOc1cc(-n2ncc(Cl)c(Cl)c2=O)nc(SC)n1 | > 4.17 | 1.51 | 
Cc1cc(/C=N/n2cnnc2)c(C)n1-c1cccc(C(F)(F)F)c1 | > 41.7 | < 0.04 | 
c1ccc2cc3c(NCCCNC4CCCCC4)ccnc3cc2c1 | 4.93 | 0.294 | 
COC(=O)C(NC(=O)c1c(Cl)sc2nnsc12)C(C)C (configuration not stated) | > 4.17 | 4.12 | 
Cc1cc(OCC(O)CNC(C)c2ccccc2)cc(C)c1Cl (configuration not stated) | > 41.7 | 4.73 | 

SMILES | IC50 [1] [µM] | IC50 ([2]; Trypanosoma brucei, STIB 795) [µM] | IC50 [2] [µM]
Oc1c(C(Nc2nccs2)c2ccccn2)ccc2cccnc12 (configuration not stated) | 4.16 | 0.973 | 
NCCCCNCCOC(c1ccc(F)cc1)c1ccc(F)cc1 | > 20.8 | 2.6 | 
CC1CCN(Cc2cc(Br)c(O)c3ncccc23)CC1 | 5.36 | 1.63 | 
COc1ccc2c(-c3ccccc3)cc(NCCCN(C)C)nc2c1 | > 20.8 | 3.67 | 
CN1CCN(Cc2cc(Br)c3cccnc3c2O)CC1 | > 4.17 | 5.07 | 
CC(C)CC(=O)NC(=C(Cl)Cl)S(=O)(=O)c1ccccc1 | > 4.17 | 5.33 | 
COc1ccc(C)cc1/N=N/c1ccc(O)c2nc(/C=N/O)ccc12 | > 20.8 | 2.37 | 
O=C(N/N=C/c1cc2c3c(c1O)CCCN3CCC2)c1ccncc1 | > 0.42 | 0.288 | 
CCc1nnc(NC(=O)c2cc3ccc4ccc(C)nc4c3[nH]2)s1 | > 41.7 | 0.494 | 
C=CCn1c(=N)n(CC(O)COc2ccccc2C)c2ccccc21 (configuration not stated) | > 20.8 | 0.72 | 
CCCC(=O)NC(c1cccc(F)c1)c1ccc2cccnc2c1O (configuration not stated) | > 20.8 | 7.07 | 
CC(C)NCC(O)CNc1cccc2c1C(=O)c1ccccc1C2=O (configuration not stated) | > 4.17 | 3.42 | 
O=C1CC(n2nnn(-c3ccccc3Cl)c2=S)C2COC1O2 (configuration not stated) | > 41.7 | 4.6 | 
O=S1(=O)CCC(N2COc3c(cc(Cl)c4cccnc34)C2)C1 (configuration not stated) | > 4.17 | 5.09 | 
CN1C/C(=C/c2ccc(C#N)cc2)C(=O)/C(=C/c2ccc(C#N)cc2)C1 | > 20.8 | 0.366 | 
CC(C)c1ccc(OCc2ccc(C(=O)NCCN(C)C)cc2)cc1 | > 20.8 | 5.86 | 
Clc1cccc(CNC2=Nc3ccccc3NC23CCNCC3)c1 | 9.14 | 1.2 | 
c1ccc(COc2ccc(-c3cc(C4CCNCC4)[nH]n3)cc2)cc1 | > 10.4 | 1.95 | 
CC(C)(C)c1ccc2c(c1)OCCOCCOCCOCCO2 | > 20.8 | 5.26 | 
Cc1cccc2c1NC(=O)C2(c1ccc(O)cc1)c1ccc(O)cc1 | > 20.8 | 5.72 | 
CC(C)Nc1ccc(Nc2ccnc3cc4ccccc4cc23)cc1 | > 41.7 | 2.58 | 
S=C(N/N=C(/c1ccccc1)c1ccccn1)Nc1ccccc1 | > 4.17 | 4.84 | 
Cc1ccc(C(OCC(C)(C)C[N+](C)(C)C)c2ccccc2)cc1 (configuration not stated) | > 41.7 | 6.71 | 
